# Reference: US20250188427A1, “METHOD OF PRODUCING TARGET VIRUS AND CULTURE COMPOSITION” (FUJIFILM Corporation, priority 2022, published 2025)
# System: AAV producer cell (HEK293)
# Assay: AAV titer by ddPCR, JQ1 treatment with and without wash out (FIG. 4)
# Type: cell-based, human
# Settings: JQ1 4 μmol/L for 24 hours, medium exchanged to medium without JQ1 (with doxycycline 0.5 μg/mL), recovered after further 48 hours; versus 72 hours JQ1
# Protocol: The HEK cell culture solution, which had been cultured for 72 hours after the gene introduction under the conditions of 37° C. and 8% CO2, was collected, and the cells were disrupted by freezing and thawing at −80° C. Then, the supernatant was collected by centrifugation at 13,800×g, 2 mmol/L (final concentration) MgCl2, and 25 U/mL Benzonase was added thereto, and a reaction was carried out at 37° C. for 2 hours to digest gDNA (genomic DNA) and residual plasmid. The sample after the reaction was incubated at 95° C. for 15 minutes, 70° C. for 3 minutes, 40° C. for 3 minutes, and 20° C. for 3 minutes in this order, to inactivate Benzonase, and the reactant was used as a ddPCR (Droplet Digital PCR) sample. […]. The sequences of the seq18, seq19, and seq20 are set forth in SEQ ID NOs: 18 to 20 in the sequence list.
# In ddPCR, droplets were formed from the prepared solution using a droplet forming apparatus, and subsequently incubated at 95° C. for 10 minutes, 94° C. for 30 seconds, and 55° C. in this order for 40 cycles, and then incubated at 98° C. for 10 minutes. Measurement was performed using a droplet reader, and the AAV genomic titer (vg/mL) was calculated.
# Furthermore, the produced AAV producer cell was seeded at 5×10^5 cells/mL and incubated for 6 hours, and then doxycycline (final concentration: 0.5 μg/mL) and JQ1 (final concentration: 4 μmol/L) were added. […]
smiles,measurement,value
"Cc1sc2c(c1C)C(c1ccc(Cl)cc1)=N[C@@H](CC(=O)OC(C)(C)C)c1nnc(C)n1-2 [(+)-JQ1, (S)-(+)-tert-butyl 2-(4-(4-chlorophenyl)-2,3,9-trimethyl-6H-thieno[3,2-f][1,2,4]triazolo[4,3-a][1,4]diazepin-6-yl)acetate]",AAV titer per cell,further improved
